In patent US9102607B2 (priority 2009, dated 2015):
Converted amounts (≈) assume the structure as drawn. “And” between values parts separate entries of the source, which are not always exact repeats. Identical values can stand only once. Like-named read-outs stand apart in the source and are kept apart here.

Tests used:
P. acnes CIP53.117 = assay: microbe, parasite or virus in culture; assay type: cell-based, Propionibacterium acnes
TPA-induced ear oedema = assay: Anti-inflammatory activity after a single topical administration in TPA-induced ear oedema; assay type: in vivo, mouse; settings: for anti-inflammatory effect (in words) / Inhibition vs TPA (%) / Ear oedema Mean: single topical application; for Inhibition vs TPA (%): T6 h; for Ear oedema Mean: ear thickness at T6 h; for anti-inflammatory effect compared to BPO 5% (in words): compared to BPO at 5%
Procedure: the aim is to evaluate the anti-inflammatory activity of the peroxides by measuring the thickness of mouse ear after TPA topical application. The anti-inflammatory activity is defined as a inhibition percentage of the TAP-induced ear oedema.
An oedema was induced by a single topical application of 20 μl of TPA dissolved in acetone at 0.01%.
Then a single topical application of tested compounds dissolved in TPA solution.
Ear thickness was measured at T6 h.
Results are expressed in percentages based on the inhibition on the oedema induced by the TPA application.
Benzoyl peroxide (BPo) was tested 2 times as a reference peroxide.

[1] = Cutibacterium acnes, CIP53, 72 h
[2] = compound 1% in TPA 0.01% solution
[3] = compound 2.5% in TPA 0.01% solution
[4] = compound 5% in TPA 0.01% solution

Compound | MIC (P. acnes CIP53.117; [1]) [µg/mL] | anti-inflammatory effect (in words) (TPA-induced ear oedema; 1%, 2.5% and 5%) | Inhibition vs TPA (%) (TPA-induced ear oedema; [2]) | Ear oedema Mean (TPA-induced ear oedema; [2]) | Inhibition vs TPA (%) (TPA-induced ear oedema; [3]) | Ear oedema Mean (TPA-induced ear oedema; [3]) | Inhibition vs TPA (%) (TPA-induced ear oedema; [4]) | Ear oedema Mean (TPA-induced ear oedema; [4]) | anti-inflammatory effect compared to BPO 5% (in words) (TPA-induced ear oedema) | MIC (P. acnes CIP53.117) [µg/mL] | anti-inflammatory effect (in words) (TPA-induced ear oedema; at 5%)
CC(C)(C)OC(=O)Oc1ccccc1C(=O)OOC(=O)c1ccccc1 [Example 2, (2-(tert-Butoxycarbonyloxy)benzoyl)benzoyl peroxide] | 40 (≈ 112 µM) |  |  |  |  |  |  |  |  |  | 
CCOC(=O)Oc1ccccc1C(=O)OOC(=O)c1ccccc1OC(=O)OCC [Example 3, Bis(2-(ethoxycarbonyloxy)benzoyl)peroxide] | 160 (≈ 382 µM) | strong dose-dependent anti-inflammatory effect | 45.7 | 13.80 | 66.1 | 8.60 | 81.1% | 4.80 |  |  | 
CCOC(=O)Oc1ccccc1C(=O)OOC(=O)c1ccccc1 [Example 1, (2-(Ethoxycarbonyloxy)benzoyl)benzoyl peroxide] | 80 (≈ 242 µM) | dose-dependent anti-inflammatory effect | 13.9 | 24.80 | 29.9 | 20.20 | 53.5% | 13.40 | significantly superior |  | 
CC(C)OC(=O)Oc1ccccc1C(=O)OOC(=O)c1ccccc1OC(=O)OC(C)C [Example 6, Bis(2-(isopropoxycarbonyloxy)benzoyl)peroxide] | 80 (≈ 179 µM) | strong dose-dependent anti-inflammatory effect | 57.1 | 9.60 | 78.6 | 4.80 | 93.8% | 1.40 | stronger anti-inflammatory effect |  | 
CC(C)(C)C(=O)Oc1ccccc1C(=O)OOC(=O)c1ccccc1 [Example 9, (2-(tert-Butyryloxy)benzoyl)benzoyl peroxide] |  |  |  |  |  |  |  |  |  | 320 (≈ 935 µM) | 
O=C(OOC(=O)c1ccccc1)c1ccccc1 [BPO, Benzoyl peroxide, reference compound] |  |  |  |  |  |  | 21.4% and 27.8% | 17.60 and 20.80 |  |  | 
CC(C)OC(=O)Oc1ccccc1C(=O)OOC(=O)c1ccccc1 [Example 5, (2-(Isopropoxycarbonyloxy)benzoyl)benzoyl peroxide] | 40 (≈ 116 µM) |  | 8.9 | 20.40 | 44.6 | 12.40 | 72.3% | 6.20 | stronger anti-inflammatory effect |  | significant anti-inflammatory effect
CC(C)C(=O)Oc1ccccc1C(=O)OOC(=O)c1ccccc1 [Example 10, (2-(Isobutyryloxy)benzoyl)benzoyl peroxide] | 80 (≈ 244 µM) |  |  |  |  |  |  |  |  |  | 
O=C(CC12CC3CC(CC(C3)C1)C2)Oc1ccccc1C(=O)OOC(=O)c1ccccc1 [Example 12, [2-(2-(Adamantan-1-yl)acetoxy)benzoyl]benzoyl peroxide] | 320 (≈ 736 µM) |  |  |  |  |  |  |  |  |  | 
